Test results taken from patent publication US9867811B2, “Method of treating atherosclerosis in high triglyceride subjects” (NOVARTIS AG, priority 2011, dated 2018).
Where two headings read alike, the source gives them in different places.

What was measured:
CETP [1] = test: Ex vivo plasma CETP activity assay with exogenously added compound (maximum inhibition); assay type: biochemical; settings: 10 μM, hamster plasma (80% plasma)
Description: Plasma CETP activity ex vivo was determined as followed: 50 μL of hamster plasma (final 80% plasma) was mixed with 10 μL of donor solution diluted with assay buffer composed of 50 mM Tris-HCl (pH7.4) containing 150 mM NaCl and 2 mM EDTA in a 96-well half area black flat bottom plate (Cat. No. 3686, Corning, Corning, N.Y.). Fluorescence intensity was measured every 15 min at an excitation wave length of 485 nm and an emission wavelength of 535 nm for 120 min at 37° C. using ARVO SX+L (PerkinElmer, Wellesley, Mass.). CETP activity (RFU/min) was defined as the change in fluorescence intensity from 30 to 90 min.

CETP [2] = test: Ex vivo CETP activity in plasma of hamsters (saline or Triton WR-1339 treated); settings: hamster
Description: Nine- to ten-week-old, male golden Syrian hamsters were purchased from Japan SLC Inc. (Shizuoka, Japan). Animals underwent a more than 1-week acclimation period under the following conditions: 8:00/20:00 light/dark cycle, room temperature 23±2° C. […] During this time, animals received filtered (0.5 μm) water and a standard chow diet ad libitum.
Whole blood samples were collected using a heparin-washed syringe (Heparin sodium injection “Ajinomoto”; Ajinomoto, Tokyo, Japan) from the abdominal vein by venipuncture under isoflurane (Abbott Japan Co. Ltd.) inhalant anesthesia. After centrifugation at 15,000 rpm for 10 min at 4° C., heparinized plasma was prepared and stored at −80° C. until use.
CETP activity (RFU/min) was defined as the change in fluorescence intensity from 30 to 90 min.
The effect of an acute increase of plasma triglycerides in vivo (acute increase in triglyceride-rich particles) on the ability of Torcetrapib to alter plasma CETP activity, triglyceride and total cholesterol levels was investigated. Torcetrapib at doses of 3, 10 or 30 mg/kg or vehicle was administered once by gavage to hamsters fed a standard chow diet.
Compound or vehicle was administered once by gavage to hamsters fed a standard chow diet.

CETP [3] = target: T1, CETP (Homo sapiens, UniProt P11597); test: In vitro CETP activity assay in human plasma (serum pools of differing triglyceride level); assay type: biochemical; settings: human serum pool
T1 construct: Human serum samples were obtained from the Novartis Institutes for BioMedical Research donor program; tissue Novartis donor program; Bioreclamation (Westbury, N.Y.); Uniglobe (Reseda, Calif.); host or cells: pooled human donor serum
T1 sequence (P11597 18-493): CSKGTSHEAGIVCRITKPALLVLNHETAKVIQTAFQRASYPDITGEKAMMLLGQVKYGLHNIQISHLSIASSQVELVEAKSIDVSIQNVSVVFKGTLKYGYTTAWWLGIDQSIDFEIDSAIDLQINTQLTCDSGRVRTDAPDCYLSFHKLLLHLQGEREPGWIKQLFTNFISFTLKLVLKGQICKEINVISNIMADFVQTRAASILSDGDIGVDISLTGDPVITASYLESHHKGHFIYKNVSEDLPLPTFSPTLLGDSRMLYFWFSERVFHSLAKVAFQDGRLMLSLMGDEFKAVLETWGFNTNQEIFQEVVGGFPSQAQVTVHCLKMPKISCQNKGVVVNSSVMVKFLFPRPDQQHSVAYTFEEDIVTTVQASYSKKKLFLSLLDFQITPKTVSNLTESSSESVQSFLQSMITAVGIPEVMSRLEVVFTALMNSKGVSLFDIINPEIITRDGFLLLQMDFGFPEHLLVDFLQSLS
Description: Pro-apoA-1 containing microemulsion as a donor particle was prepared following previous report (J. Biol. Chem., 280:14918-22). Glyceryl trioleate (500 ug, Sigma-Aldrich, Cat. No. T7140), 3-sn-phosphatidylcholine (4680 ug, Sigma, Cat. No. P2772), and cholesteryl BODIPY FL 012 (2 mg, Invitrogen, CA, Cat. No. C-3927MP) were dissolved in 1.5 mL of chloroform. The solution was evaporated, and residual solvent was removed under vacuum for more than 1 hr at room temperature. The dried lipid mixture was dissolved in 7 ml of the assay buffer (50 mM Tris-HCl (pH 7.4) containing 150 mM NaCl and 2 mM EDTA) and sonicated in water bath for 1 hr. The solution was split into two tubes of 3.5 ml each. Each tube was sonicated at 50° C. with a microtip (MICROSON™ ULTRASONIC CELL DISRUPTOR, Misonix, Farmingdale, N.Y.) at output power 006 for 10 min (every other 25 seconds). The solution was cooled to 40° C. and 400 ug of pro-apoA-1 was added to each tube (total volume of 4 mL). Then, the solution was sonicated at output power 004 for 20 min (every other 30 seconds). Final Concentration: Glyceryl Tiroleate: 62.5 ug/ml, PC: 585 ug/ml, Bodipy CE: 250 ug/ml, Pro-apoA-1: 100 ug/ml. Centrifuge solution at 5200×g for 5 minutes and store the supernatant at 4′C.
Human serum samples were obtained from the Novartis Institutes for BioMedical Research donor program (normal triglyceride samples) or purchased from Bioreclamation (Westbury, N.Y.) or Uniglobe (Reseda, Calif.). General requirements for human serum donors included: male gender, 20-55 years of age, not currently on a lipid altering medication, non-fasting at time of blood collection, and a total cholesterol level between 200-300 mg/dL. Donor samples were selected primarily on the basis of serum triglyceride level, using the following classifications: normal triglycerides (<150 mg/dL); high triglycerides (300-500 mg/dL); and very high triglycerides (750-1200 mg/dL). A total of 4 individual serum samples from each classification were used in these experiments. For each of the 3 triglyceride classifications, two serum sample pools were prepared. The mean plasma triglyceride concentrations (mg/dL) for the pools were: Normal: 101.35; High: 347.5; Very high 1, 868.45; Very high 2, 1269.35.
Donor solution is prepared by a dilution of donor microemulsion with assay buffer (1.7 ul donor+8.3 ul Buffer). Human serum (25 μL), assay buffer (14 μL) and 50× test compound dissolved in 100% dimethylsulfoxide (1 μL) are added to each well of 384 well black, clear-bottom plate (NUNC. Thermo Fisher #242764). The reaction is started by the addition of donor solution (10 μL) into each well. Fluorescence intensities are measured every 10 min at 37° C. with excitation wave length of 485 nm and emission wavelength of 515 nm over an 80 minute period, using a SpectraMax M5 from Molecular Devices (Sunnyvale, Calif.). The CETP activity (RFU/min) is defined as the change of fluorescence intensity from 40 to 70 min. Percent CETP inhibition is calculated as follows: ((100% Act−Wellcmpnd)/100% Act))*100. IC50 values were calculated with GraphPad Prism 5 software.

[4] = TG = 101.35 mg/dL (normal), read-out: CETP IC50 (nM) TG = 101.35 mg/dL
[5] = TG = 374.5 mg/dL (high), read-out: CETP IC50 (nM) TG = 374.5 mg/dL
[6] = TG = 868.45 mg/dL (very high 1), read-out: CETP IC50 (nM) TG = 868.45 mg/dL
[7] = TG = 1269.35 mg/dL (very high 2), read-out: CETP IC50 (nM) TG = 1269.35 mg/dL

Row | Compound | IC50 (CETP [3]; [4]) | IC50 (CETP [3]; [5]) | IC50 (CETP [3]; [6]) | IC50 (CETP [3]; [7]) | Maximum inhibition of CETP activity, compound exogenously added, Triton WR-1339 group (CETP [1]; Triton WR-1339 group) | Maximum inhibition of CETP activity, compound exogenously added, saline group (CETP [1]; saline group) | Inhibition of CETP activity, lower dose group, Triton WR-1339 group (CETP [2]; oral gavage: Torcetrapib 5 mg/kg, Anacetrapib 1.5 mg/kg, Example 49 1.5 mg/kg, Example 8 0.75 mg/kg, Triton WR-1339 100 mg/kg i.v., not significant vs vehicle) | Inhibition of CETP activity, lower dose group, saline group (CETP [2]; oral gavage: Torcetrapib 5 mg/kg, Anacetrapib 1.5 mg/kg, Example 49 1.5 mg/kg, Example 8 0.75 mg/kg, saline i.v.) | Inhibition of CETP activity, higher dose group, Triton WR-1339 group (CETP [2]; oral gavage: Torcetrapib 10 mg/kg, Anacetrapib 3 mg/kg, Example 49 3 mg/kg, Example 8 1.5 mg/kg, Triton WR-1339 100 mg/kg i.v.) | Inhibition of CETP activity, higher dose group, saline group (CETP [2]; oral gavage: Torcetrapib 10 mg/kg, Anacetrapib 3 mg/kg, Example 49 3 mg/kg, Example 8 1.5 mg/kg, saline i.v.)
1 | Cn1nnc(N(Cc2cc(C(F)(F)F)cc(C(F)(F)F)c2)Cc2cc3cc(F)c(F)cc3nc2N2CCC[C@@H]2[C@H]2CC[C@H](C(=O)O)CC2)n1 [Example 49] | 22.1 nM | 42.7 nM | 37.1 nM | 46.4 nM | ~100% | ~100% | 26% | 63% | 38% | 77%
2 | CCN(C[C@H]1CC[C@H](CC(=O)O)CC1)c1cc(C)c(C(F)(F)F)cc1CN(Cc1cc(C(F)(F)F)cc(C(F)(F)F)c1)c1nnn(C)n1 [Example 58] | 82.2 nM | 151 nM | 280 nM | 372 nM |  |  |  |  |  | 
3 | CCN(C[C@H]1CC[C@H](CC(=O)O)CC1)c1ccc(C(F)(F)F)cc1CN(c1ncc(OCCS(C)(=O)=O)cn1)[C@H](C)c1cc(C(F)(F)F)cc(C(F)(F)F)c1 [Example 57B] | 669 nM | 1300 nM | 2300 nM | 2700 nM |  |  |  |  |  | 

Continued, in another order:

Row | IC50 (CETP [3]; [4]) | IC50 (CETP [3]; [5]) | IC50 (CETP [3]; [6]) | IC50 (CETP [3]; [7]) | Compound | Maximum inhibition of CETP activity, compound exogenously added, Triton WR-1339 group (CETP [1]; Triton WR-1339 group) | Maximum inhibition of CETP activity, compound exogenously added, saline group (CETP [1]; saline group) | Inhibition of CETP activity, lower dose group, Triton WR-1339 group (CETP [2]; oral gavage: Torcetrapib 5 mg/kg, Anacetrapib 1.5 mg/kg, Example 49 1.5 mg/kg, Example 8 0.75 mg/kg, Triton WR-1339 100 mg/kg i.v., not significant vs vehicle) | Inhibition of CETP activity, lower dose group, saline group (CETP [2]; oral gavage: Torcetrapib 5 mg/kg, Anacetrapib 1.5 mg/kg, Example 49 1.5 mg/kg, Example 8 0.75 mg/kg, saline i.v.) | Inhibition of CETP activity, higher dose group, Triton WR-1339 group (CETP [2]; oral gavage: Torcetrapib 10 mg/kg, Anacetrapib 3 mg/kg, Example 49 3 mg/kg, Example 8 1.5 mg/kg, Triton WR-1339 100 mg/kg i.v.) | Inhibition of CETP activity, higher dose group, saline group (CETP [2]; oral gavage: Torcetrapib 10 mg/kg, Anacetrapib 3 mg/kg, Example 49 3 mg/kg, Example 8 1.5 mg/kg, saline i.v.)
4 | 301 nM | 155 nM | 91.7 nM | 29.4 nM | CCN(C[C@H]1CC[C@H](CC(=O)O)CC1)c1ccc(C(F)(F)F)cc1CN(c1ncc(OCCS(C)(=O)=O)cn1)[C@@H](C)c1cc(C(F)(F)F)cc(C(F)(F)F)c1 [Example 57A] |  |  |  |  |  | 
5 | 48.7 nM | 49.8 nM | 54.4 nM | 92.3 nM | Cc1cc(C)c2c(c1)[C@@H](N(Cc1cc(C(F)(F)F)cc(C(F)(F)F)c1)c1nnn(C)n1)CCCN2C[C@H]1CC[C@H](C(=O)O)CC1 [Example 53] |  |  |  |  |  | 
6 | 71.9 nM | 116 nM |  | 540 nM | CC[C@@H]1C[C@H](N(Cc2cc(C(F)(F)F)cc(C(F)(F)F)c2)c2ncc(-c3cnn(C)c3)cn2)C[C@H](CC)N1C(=O)O[C@H]1CC[C@H](C(=O)O)CC1 [Example 19] |  |  |  |  |  | 
7 | 114 nM | 62.7 nM | 40.2 nM | 29.6 nM | CC[C@@H]1C[C@H](N(Cc2cc(C(F)(F)F)cc(C(F)(F)F)c2)c2ncc(-c3cnn(C)c3)cn2)C[C@H](CC)N1C(=O)O[C@H]1C[C@H](C(=O)O)C1 [Example 17] |  |  |  |  |  | 
